Measured values published in patent US20210355106A1, “NEW AMINO-PYRIMIDONYL-PIPERIDINYL DERIVATIVES, A PROCESS FOR THEIR PREPARATION AND PHARMACEUTICAL COMPOSITIONS CONTAINING THEM” (LES LABORATOIRES SERVIER, priority 2018, published 2021).

What was measured:
USP7 = biological target: T1, USP7 (Homo sapiens, UniProt Q93009, C315A); assay: Inhibition of USP7 by Fluorescence Intensity (FLINT) readings, Ubiquitin-Rhodamine-110 substrate; format: biochemical; details: 0.25 nM His-His-USP7 (aa208-560), 60 minutes at 30° C. preincubation; Ki determined from IC50 according to Cer et al.
T1 construct: 0.25 nM His-His-USP7 (aa208-560, |C315A|) was incubated with compound; His-His (N)
Procedure, shortened: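 His-tagged USP7 (aa208-560, C315A), 0.25 nM, preincubated with compound 60 min at 30 °C in 100 mM Bicine pH 8.0, 0.01% Triton X-100, 1 mM TCEP, 10% DMSO. Ubiquitin-Rhodamine-110 (50 nM or 4 μM) added; kinetic fluorescence (Ex 485/Em 535 nm) over 21 min; IC50 from 11-point curves, Ki derived from IC50.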

[1] = tested on: Z138 mantle cell lymphoma tumour cell lines; assay: In vitro cytotoxicity, MTT assay; format: cell-based; details: Homo sapiens, Z-138; Z138 cells, exposed to the test compounds for 96 hours
Procedure, shortened: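 Z138 cells exposed to compounds for 96 hours, then MTT added for 4 hours. Formazan absorbance at 540 nm serves as the measure of viable cell number.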

T1 sequence (Q93009 208-560 C315A): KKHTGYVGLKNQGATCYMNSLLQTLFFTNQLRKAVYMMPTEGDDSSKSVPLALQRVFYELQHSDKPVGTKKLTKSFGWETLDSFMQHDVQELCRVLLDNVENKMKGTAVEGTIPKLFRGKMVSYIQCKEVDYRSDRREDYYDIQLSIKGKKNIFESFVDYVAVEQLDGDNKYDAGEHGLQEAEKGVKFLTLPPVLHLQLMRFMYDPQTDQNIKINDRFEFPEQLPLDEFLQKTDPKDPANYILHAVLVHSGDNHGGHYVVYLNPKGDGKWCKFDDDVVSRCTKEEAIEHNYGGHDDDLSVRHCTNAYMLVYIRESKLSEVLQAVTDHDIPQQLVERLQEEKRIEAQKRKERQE

| SMILES | Ki (USP7) | IC50 [1] |
| --- | --- | --- |
| Nc1c(Oc2ccc(F)cc2)ncn(CC2(O)CCN(C(=O)[C@@H]3CCN(C(=O)Nc4nccs4)C[C@H]3c3ccccc3)CC2)c1=O [Example 86, (3R,4R)-4-[4-[[5-amino-4-(4-fluorophenoxy)-6-oxo-pyrimidin-1-yl]methyl]-4-hydroxy-piperidine-1-carbonyl]-3-phenyl-N-thiazol-2-yl-piperidine-1-carboxamide] | 58 nM | 838 nM |
| Cc1cnc(CN2CC[C@@H](C(=O)N3CC[C@](O)(Cn4cnc(Oc5ccc(Cl)c(F)c5)c(N)c4=O)C(F)(F)C3)[C@H](c3ccccc3)C2)cn1 [Example 148, 5-amino-6-(4-chloro-3-fluoro-phenoxy)-3-[[(4S)-3,3-difluoro-4-hydroxy-1-[(3R,4R)-1-[(5-methylpyrazin-2-yl)methyl]-3-phenyl-piperidine-4-carbonyl]-4-piperidyl]methyl]pyrimidin-4-one] | 7.5 nM | 39.9 nM |
| Nc1c(Oc2ccc(F)cc2)ncn(C[C@@]2(O)CCN(C(=O)[C@@H]3CCN(Cc4cnccn4)C[C@H]3c3ccccc3)CC2(F)F)c1=O [Example 202, 5-amino-3-[[(4S)-3,3-difluoro-4-hydroxy-1-[(3R,4R)-3-phenyl-1-(pyrazin-2-ylmethyl)piperidine-4-carbonyl]-4-piperidyl]methyl]-6-(4-fluorophenoxy)pyrimidin-4-one] | 21.8 nM | 11.7 nM |
| Cc1ccc(-c2cc(F)c(C(=O)N3CC[C@@H](C(=O)N4CC[C@](O)(Cn5cnc(Oc6ccc(F)cc6)c(N)c5=O)C(F)(F)C4)[C@H](c4ccccc4)C3)s2)cn1 [Example 105, 5-amino-3-([(4S)-3,3-difluoro-1-((3R,4R)-1-[3-fluoro-5-(6-methylpyridin-3-yl)thiophene-2-carbonyl]-3-phenylpiperidine-4-carbonyl}-4-hydroxypiperidin-4-yl}methyl}-6-(4-fluorophenoxy)pyrimidin-4(3H)-one] | 2.6 nM | 5.08 nM |
| CN(C(=O)CN1CC[C@@H](C(=O)N2CCC(O)(Cn3cnc(Oc4ccc(F)cc4)c(N)c3=O)CC2)[C@H](c2ccccc2)C1)c1ccccc1 [Example 74] | 78 nM | 70 nM |
| Cc1ccccc1C1(N2CC[C@@H](C(=O)N3CCC(O)(Cn4cnc(Oc5ccc(F)cc5)c(N)c4=O)CC3)[C@H](c3ccccc3)C2)COC1 [Example 138] | 45 nM | 24 nM |
| Nc1c(Oc2ccc(F)cc2)ncn(CC2(O)CCN(C(=O)[C@@H]3CCN(S(=O)(=O)c4ccccc4)C[C@H]3c3ccccc3)CC2)c1=O [Example 30, 5-amino-3-({1-[(3R,4R)-1-(benzenesulfonyl)-3-phenyl-piperidine-4-carbonyl]A-hydroxy-4-piperidyl]methyl]-6-(4-fluorophenoxy)pyrimidin-4-one] | 28.4 nM | 9.1 nM |
| Cc1nccc(CN2CC[C@@H](C(=O)N3CC[C@](O)(Cn4cnc(Oc5ccc(Cl)c(F)c5)c(N)c4=O)C(F)(F)C3)[C@H](c3ccccc3)C2)n1 [Example 147] | 19 nM | 48.7 nM |
| Cc1nc(C2CC(F)(F)C2)sc1C(=O)N1CC[C@@H](C(=O)N2CC[C@](O)(Cn3cnc(Oc4ccc(F)cc4)c(N)c3=O)C(F)(F)C2)[C@H](c2ccccc2)C1 [Example 190] | 12.4 nM | 6.82 nM |
| Cc1cnc(CN2CC[C@@H](C(=O)N3CC[C@](O)(Cn4cnc(Oc5cccc(C(F)(F)F)c5)c(N)c4=O)C(F)(F)C3)[C@H](c3ccccc3)C2)cn1 [Example 144, 5-amino-3-{[(4S)-3,3-difluoro-4-hydroxy-1-[(3R,4R)-1-((5-methylpyrazin-2-yl)methyl]-3-phenyl-piperidine-4-carbonyl]-4-piperidyl]methyl]-6-[3-(trifluoromethyl)phenoxy]pyrimidin-4-one] | 22 nM | 80.2 nM |
| Cc1ccc(-c2ccc(S(=O)(=O)N3CC[C@@H](C(=O)N4CCC(O)(Cn5cnc(Oc6ccc(F)cc6)c(N)c5=O)CC4)[C@H](c4ccccc4)C3)s2)cn1 [Example 117] | 28.6 nM | 27.6 nM |
| Cc1ccc(-c2nccc(CN3CC[C@@H](C(=O)N4CC[C@](O)(Cn5cnc(Oc6ccc(F)cc6)c(N)c5=O)C(F)(F)C4)[C@H](c4ccccc4)C3)n2)cn1 [Example 176, 5-amino-3-[[(4S)-3,3-difluoro-4-hydroxy-1-((3R,4R)-1-{[2-(6-methyl-3-pyridyl)pyrimidin-4-yl]methyl]-3-phenyl-piperidine-4-carbonyl]-4-piperidyl]methyl]-6-(4-fluorophenoxy)pyrimidin-4-one] | 3.2 nM | 1.52 nM |
| Nc1c(Oc2ccc(F)cc2)ncn(C[C@@]2(O)CCN(C(=O)[C@@H]3CCN(Cc4ccccc4F)C[C@H]3c3ccccc3)CC2(F)F)c1=O [Example 54, 5-amino-3-{[(4S)-3,3-difluoro-1-((3R,4R)-1-[(2-fluorophenyl)methyl]-3-phenylpiperidine-4-carbonyl}-4-hydroxypiperidin-4-yl}methyl)-6-(4-fluorophenoxy)pyrimidin-4(3H)-one] | 13 nM | 9.1 nM |

Second part, led by results:

| Ki (USP7) | SMILES | IC50 [1] |
| --- | --- | --- |
| 6.5 nM | Cc1nc(-c2ccccc2)sc1C(=O)N1CC[C@@H](C(=O)N2CCC(O)(Cn3cnc(Oc4ccc(F)cc4)c(N)c3=O)CC2)[C@H](c2ccccc2)C1 [Example 66, 5-amino-6-(4-fluorophenoxy)-3-({4-hydroxy-1-[(3R,4R)-1-(4-methyl-2-phenyl-1,3-thiazole-5-carbonyl)-3-phenylpiperidine-4-carbonyl]piperidin-4-yl}methyl)pyrimidin-4(3H)-one] | 4.5 nM |
| 11 nM | Cc1ccc(-c2cc(F)c(C(=O)N3CC[C@@H](C(=O)N4CCC(O)(Cn5cnc(Oc6cccc(C(F)(F)F)c6)c(N)c5=O)CC4)[C@H](c4ccccc4)C3)s2)cn1 [Example 101, 5-amino-3-[[1-[(3R,4R)-1-[3-fluoro-5-(46-methyl-3-pyridyl)thiophene-2-carbonyl]-3-phenyl-piperidine-4-carbonyl]-4-hydroxy-4-piperidyl]methyl]-6-[3-(trifluoromethyl)phenoxy]pyrimidin-4-one] | 25.3 nM |
| 58 nM | CN(C(=O)N1CC[C@@H](C(=O)N2CCC(O)(Cn3cnc(Oc4ccc(F)cc4)c(N)c3=O)CC2)[C@H](c2ccccc2)C1)c1ccccc1 [Example 78, (3R,4R)-4-[4-[[5-amino-4-(4-fluorophenoxy)-6-oxo-pyrimidin-1-yl]methyl]-4-hydroxy-piperidine-1-carbonyl]-N-methyl-N,3-diphenyl-piperidine-1-carboxamide] | 15 nM |
| 15 nM | Nc1c(Oc2ccc(F)cc2)ncn(CC2(O)CCN(C(=O)[C@@H]3CCN(C(=O)c4sc(Cl)c(Br)c4F)C[C@H]3c3ccccc3)CC2)c1=O [Example 106, 5-amino-3-[[I-[(3R,4R)-1-(4-bromo-5-chloro-3-fluoro-thiophene-2-carbonyl)-3-phenyl-piperidine-4-carbonyl]-4-hydroxy-4-piperidyl]methyl]-6-(4-fluorophenoxy)pyrimidin-4-one] | 18.6 nM |
| 9.8 nM | Cc1cc(C(=O)N2CC[C@@H](C(=O)N3CCC(O)(Cn4cnc(Oc5ccc(F)cc5)c(N)c4=O)CC3)[C@H](c3ccccc3)C2)cc(C)n1 [Example 97, 5-amino-3-({1-[(3R,4R)-1-(2,6-dimethylpyridine-4-carbonyl)-3-phenylpiperidine-4-carbonyl]-4-hydroxypiperidin-4-yl}methyl)-6-(4-fluorophenoxy)pyrimidin-4(3H)-one] | 42.7 nM |
| 11.1 nM | Cc1nc(C2CC(F)(F)C2)sc1C(=O)N1CC[C@@H](C(=O)N2CCC(O)(Cn3cnc(Oc4ccc(F)cc4)c(N)c3=O)CC2)[C@H](c2ccccc2)C1 [Example 189] | 6.34 nM |
| 8.8 nM | Cc1ccc(-c2nc(C)c(C(=O)N3CC[C@@H](C(=O)N4CCC(O)(Cn5cnc(Oc6cccc(OC(F)(F)F)c6)c(N)c5=O)CC4)[C@H](c4ccccc4)C3)s2)cn1 [Example 27, 5-amino-3-[(4-hydroxy-1-((3R,4R)-1-[4-methyl-2-(6-methylpyridin-3-yl)-1,3-thiazole-5-carbonyl]-3-phenylpiperidine-4carbonyl}piperidin-4-yl)methyl]-6-[3-(trifluoromethoxy)phenoxy]pyrimidin-4(3H)-one] | 17 nM |
| 2.9 nM | Cc1ccc(-c2nc(C)c(C(=O)N3CC[C@@H](C(=O)N4CCC(O)(Cn5cnc(Oc6ccccc6)c(N)c5=O)CC4)[C@H](c4ccccc4)C3)s2)cn1 [Example 46, 5-amino-3-[(4-hydroxy-1-((3R,4R)-1-[4-methyl-2-(6-methylpyridin-3-yl)-1,3-thiazole-5-carbonyl]-3-phenylpiperidine-4-carbonyl)piperidin-4-yl)methyl)-6-phenoxypyrimidin-4(3H)-one] | 3.1 nM |
| 17 nM | Nc1c(Oc2ccc(F)cc2)ncn(CC2(O)CCN(C(=O)[C@@H]3CCN(C(=O)Nc4ccccc4)C[C@H]3c3ccccc3)CC2)c1=O [Example 76, (3R,4R).4-[4-[[5-amino-4-(4-fluorophenoxy)-6-oxo-pyrimidin-1-yl]methyl]-4-hydroxy-piperidine-1-carbonyl]-N,3-diphenyl-piperidine-1-carboxamide] | 22 nM |
| 9.23 nM | Cc1nc(C2CCCN(C)C2)sc1C(=O)N1CC[C@@H](C(=O)N2CCC(O)(Cn3cnc(Oc4ccc(F)cc4)c(N)c3=O)CC2)[C@H](c2ccccc2)C1 (stereo partly drawn) [Example 199, 5-amino-6-(4-fluorophenoxy)-3-[[4-hydroxy-1-[(3R,4R)-1-[4-methyl-2-(1-methyl-3-piperidyl)thiazole-5′-carbonyl]-3-phenyl-piperidine-4-carbonyl]-4-piperidyl]methyl]pyrimidin-4-one] | 34.1 nM |
